{"source": "patent US20150010630A1", "about": "“FUNCTIONALIZATION OF BIOMATERIALS TO CONTROL REGENERATION AND INFLAMMATION RESPONSES” (TRUSTEES OF TUFTS COLLEGE, priority 2011, published 2015)", "molecules": {"B1": {"name": "INF-γ: interferon-gamma loaded or embedded in silk films (protein, UniProt P01579 24-161, looked up)", "Interferon gamma": "QDPYVKEAENLKKYFNAGHSDVADNGTLFLGILKNWKEESDRKIMQSQIVSFYFKLFKNFKDDQSIQKSVETIKEDMNVKFFNSNKKKRDDFEKLTNYSVTDLNVQRKAIHELIQVMAELSPAAKTGKRKRSQMLFRG"}}, "key": {"[1]": {"system": "THP1 macrophages", "test": "TNF-α release (ELISA) from THP1 macrophages seeded on SP1 particles, LPS plus drug", "assay_type": "cell-based, human", "protocol": "To assess inflammatory response, a large screen of cytokines and chemokines expressed and produced by THP1 differentiated cells and primary Mφs and DCs were analyzed. Their production and release into the media environment were evaluated using an ELISA sandwich technique. […] TNF-α cytokine release was selected in the experiments described herein because it is the common proinflammatory cytokine produced by Mφs as well as DCs. However, other inflammation-associated cytokines can also be measured."}, "[2]": {"system": "THP1 macrophages", "test": "RT-PCR gene expression (TNF-α, TGF-β, IL-10) of THP1 macrophages on SP1 particles"}, "[3]": {"system": "primary macrophages", "test": "TNF-α release (ELISA) from primary macrophages on SP0.5 particles", "assay_type": "cell-based, human", "conditions": "dexamethasone ~25 to ~1.5625 μg/ml both time points; simvastatin about 250 to about 31.25 μg/ml at 1 day; nicotine either time point"}, "[4]": {"system": "primary dendritic cells", "test": "RT-PCR gene expression (IL-1β, IL-1RA, IL-8) of primary dendritic cells on SP0.5 particles", "assay_type": "cell-based, human"}, "[5]": {"system": "primary macrophages", "test": "RT-PCR gene expression (TNF-α, IL-1RA, IL-10) of primary macrophages on SP0.5 particles", "assay_type": "cell-based, human", "conditions": "1 day"}, "[6]": {"system": "primary dendritic cells", "test": "TNF-α release (ELISA) from primary dendritic cells on SP0.5 particles", "assay_type": "cell-based, human", "conditions": "various concentrations, both time points"}, "[7]": {"system": "THP1 macrophages", "protocol": "The number of cells was determined, e.g., by counting the cells at the beginning of the experiment and by using the alamar blue method after the seeding. On the day the cells were seeded at the appropriate number, phorbo112-myristate 13-acetate (PMA) was added to the media at a final concentration of about 100 ng/ml to differentiate the THP-1 monocytes into THP-1 macrophages."}, "[8]": {"system": "THP-1 monocytes", "test": "M1/M2 macrophage marker expression in THP-1 monocytes cultured on silk films functionalized with macrophage-skewing agent", "assay_type": "cell-based, human"}, "[9]": {"test": "Release of INF-γ from INF-γ embedded silk films (ELISA)", "assay_type": "physicochemical", "protocol": "An ELISA was run to show the release rate of INF-γ from the silk films. The films were made from a silk fibroin solution of about 10 μg/m and 0.2 ml used per film (for a total loading of about 2 μg INF-γ). Within one hour a large amount of INF-γ is released but as a percentage of the total loading it is small and by 4 days more INF-γ is released showing that there is a continued or constant release of INF-γ. While the levels of INF-γ release are low, they are physiologically relevant.\nFIG. 23 is a line graph showing the release rate of INF-γ from the silk films. The silk films were made from a silk solution at a concentration of about 10 μg/m and about 0.2 ml of the silk solution was used per film (with a loading of about 2 μg INF-γ). As shown in the table of FIG. 23, within one hour an amount of about […] INF-γ was released, which is about 0.02% of the total loading. […] While the levels of INF-γ release appeared to be low, the level is physiologically relevant."}, "[10]": {"conditions": "about 10 μg/ml INF-γ in silk films"}}, "note": "Where two headings read alike, the source gives them in different places.", "data": [{"molecule": "CCC(C)(C)C(=O)O[C@H]1C[C@@H](C)C=C2C=C[C@H](C)[C@H](CC[C@@H]3C[C@@H](O)CC(=O)O3)[C@H]21", "note": "[simvastatin]", "values": [{"measurement": "TNF-α release", "setting": "[1]; simvastatin ~31.5 μg/ml and less", "value": "about 0.07 pg/ml"}]}, {"molecule": "C[C@@H]1C[C@H]2[C@@H]3CCC4=CC(=O)C=C[C@]4(C)[C@@]3(F)[C@@H](O)C[C@]2(C)[C@@]1(O)C(=O)CO", "note": "[dexamethasone]", "values": [{"measurement": "IL-10 fold change in expression (relative to positive control)", "setting": "[2]; 1 day, dexamethasone about 12.5 μg/ml", "value": "above 1 fold"}]}, {"molecule": "CN1CCCC1c1cccnc1", "note": "(centres unmarked) [nicotine]", "values": [{"measurement": "TNF-α release compared to positive control (LPS), high concentrations", "setting": "[1]; dexamethasone ~100 and ~50 μg/ml, simvastatin higher concentration, nicotine above 750 μg/ml, both time points", "value": "more TNF-α was released than the positive control"}, {"measurement": "TNF-α release compared to LPS control", "setting": "[3]", "value": "no significant decrease"}, {"measurement": "gene expression profile (anti-inflammatory or not)", "setting": "[4]; 1 day, dexamethasone various concentrations, simvastatin ~62.5 μg/ml, nicotine about 46.87 to about 187.5 μg/ml", "value": "no anti-inflammatory profile"}, {"measurement": "gene expression profile (anti-inflammatory or not)", "setting": "[4]; 5 days", "value": "no anti-inflammatory profile"}, {"measurement": "IL-10 gene expression", "setting": "[2]; 1 day, dexamethasone vs media control, simvastatin vs positive control, nicotine vs controls", "value": "unregulated"}, {"measurement": "TGF-β gene expression", "setting": "[2]; 3 days, dexamethasone all concentrations except ~25 μg/ml, nicotine compared to same concentrations at 1 day", "value": "downregulated"}, {"measurement": "TNF-α gene expression", "setting": "[2]; 3 days, dexamethasone vs LPS control, nicotine vs negative control", "value": "higher than the negative control"}, {"measurement": "IL-10 gene expression", "setting": "[2]; 3 days, nicotine compared to same concentrations at 1 day", "value": "downregulated"}, {"measurement": "TNF-α gene expression", "setting": "[5]; dexamethasone, simvastatin 125 to 31.25 μg/ml, nicotine 187.5 and 93.75 μg/ml", "value": "downregulated"}, {"measurement": "IL-10 gene expression", "setting": "[5]; dexamethasone, simvastatin, nicotine about 750 to about 275 μg/ml", "value": "high"}, {"measurement": "IL-1RA gene expression", "setting": "[5]; simvastatin, nicotine about 750 to about 275 μg/ml", "value": "high"}, {"measurement": "TNF-α release compared to LPS control", "setting": "[6]", "value": "the same as observed with macrophages"}, {"measurement": "cytotoxicity (in words)", "setting": "[7]; dexamethasone ~100 and ~50 μg/ml, simvastatin 250 μg/ml, nicotine 3 mg/ml, both time points", "value": "cytotoxic"}, {"measurement": "cytotoxicity (in words)", "setting": "[7]; nicotine ~1.5 mg/ml, 3 days", "value": "cytotoxic"}, {"measurement": "effect on cell number versus positive and negative controls", "setting": "[7]; non-cytotoxic nicotine concentrations", "value": "proliferative effect"}]}, {"molecule": "INF-γ: interferon-gamma loaded or embedded in silk films", "values": [{"measurement": "CCL-18 (M2 macrophage marker)", "setting": "[8]; [10]", "value": "upregulated"}, {"measurement": "CD206 (M2 macrophage marker) relative to control", "setting": "[8]; [10]", "value": "strongly downregulated"}, {"measurement": "markers of M1 macrophage (CCL3 and CCR7)", "setting": "[8]; about 10 μg/ml INF-γ loaded or embedded in silk films", "value": "up-regulated"}]}, {"molecule": "B1", "values": [{"measurement": "continued INF-γ release", "setting": "[9]; by day 4", "value": "More INF-γ was released"}, {"measurement": "INF-γ released as share of the total loading", "setting": "[9]; within one hour", "value": "about 0.02%"}, {"measurement": "amount of INF-γ released from silk film", "setting": "[9]; within one hour, loading about 2 μg INF-γ per film", "value": "about 400 μg/ml"}]}]}
